The source made the active and inactive calls. No cut-off for these calls is given here.
How the values were obtained:
Type in all cases: cell-based
Conditions in all cases: Hepatocyte
[1] = target: T1, Sodium/nucleoside cotransporter 2 (Rattus norvegicus) (UniProt Q62773); experiment: Transport through CNT2 in rat hepatocytes by oil filtration assay in presence of sodium ions in Kreb-henseleit buffer containing 100 uM NBMPR and 1 mM uridine
T1 sequence (whole entry): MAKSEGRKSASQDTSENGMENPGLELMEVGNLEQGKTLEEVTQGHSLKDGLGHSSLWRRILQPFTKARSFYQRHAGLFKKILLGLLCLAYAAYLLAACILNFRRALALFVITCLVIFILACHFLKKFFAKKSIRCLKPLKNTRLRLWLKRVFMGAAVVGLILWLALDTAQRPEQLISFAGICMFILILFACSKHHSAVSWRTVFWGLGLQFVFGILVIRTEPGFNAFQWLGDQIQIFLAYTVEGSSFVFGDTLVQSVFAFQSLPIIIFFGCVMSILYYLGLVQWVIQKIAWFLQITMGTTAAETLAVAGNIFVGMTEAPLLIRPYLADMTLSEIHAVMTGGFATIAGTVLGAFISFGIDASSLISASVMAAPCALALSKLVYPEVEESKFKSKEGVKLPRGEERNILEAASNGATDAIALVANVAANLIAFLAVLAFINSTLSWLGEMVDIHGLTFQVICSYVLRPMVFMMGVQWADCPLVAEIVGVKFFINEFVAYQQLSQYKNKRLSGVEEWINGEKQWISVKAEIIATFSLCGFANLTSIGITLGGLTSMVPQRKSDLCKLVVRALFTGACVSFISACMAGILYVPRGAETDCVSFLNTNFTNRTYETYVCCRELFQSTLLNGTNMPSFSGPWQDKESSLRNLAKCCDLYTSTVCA

[2] = target: T2, Equilibrative nucleoside transporter 2 (Rattus norvegicus) (UniProt O54699); experiment: Transport through ENT2 in rat hepatocytes by oil filtration assay in presence of sodium ions in Kreb-henseleit buffer containing 100 uM NBMPR and 1 mM uridine
T2 sequence (whole entry): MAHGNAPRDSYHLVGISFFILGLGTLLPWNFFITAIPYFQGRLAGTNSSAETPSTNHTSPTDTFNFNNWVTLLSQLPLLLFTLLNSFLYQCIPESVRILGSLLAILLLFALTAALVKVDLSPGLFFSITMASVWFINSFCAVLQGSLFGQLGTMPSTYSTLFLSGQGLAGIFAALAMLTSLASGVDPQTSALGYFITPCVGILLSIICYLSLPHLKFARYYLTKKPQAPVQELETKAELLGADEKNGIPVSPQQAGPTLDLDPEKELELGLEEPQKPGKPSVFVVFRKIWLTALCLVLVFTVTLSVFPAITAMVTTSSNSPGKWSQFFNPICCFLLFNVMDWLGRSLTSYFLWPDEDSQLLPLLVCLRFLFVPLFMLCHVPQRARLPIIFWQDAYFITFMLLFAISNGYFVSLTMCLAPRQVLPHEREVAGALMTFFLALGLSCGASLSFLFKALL

[3] = target: T1, Sodium/nucleoside cotransporter 2 (Rattus norvegicus); experiment: Transport through CNT2 in rat hepatocytes by oil filtration assay in presence of sodium ions in Kreb-henseleit buffer
[4] = target: T3, Equilibrative nucleoside transporter 1 (Rattus norvegicus) (UniProt O54698); experiment: Transport through ENT1 in rat hepatocytes by oil filtration assay in presence of sodium ions in Kreb-henseleit buffer containing 100 uM NBMPR
T3 sequence (whole entry): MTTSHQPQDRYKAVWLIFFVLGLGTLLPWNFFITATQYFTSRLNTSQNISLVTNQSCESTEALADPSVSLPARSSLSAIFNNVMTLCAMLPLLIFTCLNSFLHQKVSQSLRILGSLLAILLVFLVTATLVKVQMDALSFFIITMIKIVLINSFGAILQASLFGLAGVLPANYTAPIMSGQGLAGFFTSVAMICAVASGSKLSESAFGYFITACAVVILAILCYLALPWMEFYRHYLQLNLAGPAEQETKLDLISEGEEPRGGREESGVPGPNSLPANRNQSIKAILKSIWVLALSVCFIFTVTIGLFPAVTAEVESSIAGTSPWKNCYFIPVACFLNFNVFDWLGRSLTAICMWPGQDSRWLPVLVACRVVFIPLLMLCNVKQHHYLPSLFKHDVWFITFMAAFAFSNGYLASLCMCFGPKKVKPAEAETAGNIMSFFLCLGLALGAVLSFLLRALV

[5] = target: T1, Sodium/nucleoside cotransporter 2 (Rattus norvegicus); experiment: Transport through CNT2 in rat hepatocytes by oil filtration assay in presence of sodium ions in Kreb-henseleit buffer containing 100 uM NBMPR and 1 mM inosine
[6] = target: T2, Equilibrative nucleoside transporter 2 (Rattus norvegicus); experiment: Transport through ENT2 in rat hepatocytes by oil filtration assay in presence of sodium ions in Kreb-henseleit buffer
[7] = target: T1, Sodium/nucleoside cotransporter 2 (Rattus norvegicus); experiment: Transport through CNT2 in rat hepatocytes by oil filtration assay
[8] = target: T3, Equilibrative nucleoside transporter 1 (Rattus norvegicus); experiment: Transport through ENT1 in rat hepatocytes by oil filtration assay in presence 100 uM of transporter inhibitor NBMRP
[9] = target: T3, Equilibrative nucleoside transporter 1 (Rattus norvegicus); experiment: Transport through ENT1 in rat hepatocytes by oil filtration assay
[10] = target: T4, Equilibrative nucleoside transporter 2 (Mus musculus) (UniProt Q61672); experiment: Transport through ENT2 in mouse hepatocytes by oil filtration assay in presence of sodium ions in Kreb-henseleit buffer
T4 sequence (whole entry): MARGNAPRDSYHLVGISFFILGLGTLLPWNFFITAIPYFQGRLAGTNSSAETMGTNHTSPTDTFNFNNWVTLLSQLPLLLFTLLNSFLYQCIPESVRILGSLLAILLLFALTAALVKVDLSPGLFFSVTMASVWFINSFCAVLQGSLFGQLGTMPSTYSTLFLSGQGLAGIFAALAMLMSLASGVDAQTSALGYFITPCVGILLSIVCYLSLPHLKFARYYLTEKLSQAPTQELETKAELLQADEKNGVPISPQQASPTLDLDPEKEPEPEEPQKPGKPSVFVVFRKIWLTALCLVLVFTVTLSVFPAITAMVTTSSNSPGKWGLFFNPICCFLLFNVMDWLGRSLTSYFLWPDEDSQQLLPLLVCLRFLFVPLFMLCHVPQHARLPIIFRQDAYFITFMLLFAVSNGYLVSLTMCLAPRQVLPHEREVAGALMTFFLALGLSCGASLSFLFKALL

NC(=O)c1ncn([C@@H]2O[C@H](CO)[C@@H](O)[C@H]2O)n1
Activity [1]: inactive
Activity [2]: inactive
Activity [3]: Active
Activity [4]: Active
Activity [5]: inactive
Activity [6]: Active
Activity [7]: Active
Activity [8]: inactive
Activity [9]: Active
Activity [10]: inactive

Nc1ncnc2c1ncn2[C@@H]1O[C@H](CO)[C@@H](O)[C@H]1O
Activity [1]: inactive
Activity [2]: inactive
Activity [3]: Active
Activity [4]: Active
Activity [5]: inactive
Activity [6]: Active
Activity [7]: inactive
Activity [8]: inactive
Activity [9]: inactive
Activity [10]: inactive

Source: ChEMBL document CHEMBL1275601, “Striking species difference in the contribution of concentrative nucleoside transporter 2 to nucleoside uptake between mouse and rat hepatocytes” (Antimicrob Agents Chemother, 2010)
